Results reported in patent US9561228B2 (Celgene Avilomics Research, Inc., priority 2013, dated 2017).
Where two headings read alike, the source gives them in different places.

Assays:
Erk1 = molecular target: T1, Erk1 (Homo sapiens, UniProt P27361); test: Protein Mass Modification Assay (intact protein MALDI, 60 min, 10-fold excess of compound); assay type: binding
T1 construct: purchased Millipore 14-439
In short: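 Human Erk1 was incubated 60 min at room temperature with a 10-fold molar excess of compound, then analysed as intact protein by MALDI with sinapinic acid matrix. The centroid mass shift versus untreated protein was divided by compound molecular weight to give percent modified protein.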

MEK1 activated ERK1 = molecular target: T2, MEK1 activated ERK1 (Homo sapiens, UniProt P27361); test: Omnia continuous-read kinase assay for potency against MEK1 activated ERK1; assay type: biochemical
T2 construct: purchased Millipore (Billerica, Mass.) 14-439-K
T2 sequence (P27361 whole entry): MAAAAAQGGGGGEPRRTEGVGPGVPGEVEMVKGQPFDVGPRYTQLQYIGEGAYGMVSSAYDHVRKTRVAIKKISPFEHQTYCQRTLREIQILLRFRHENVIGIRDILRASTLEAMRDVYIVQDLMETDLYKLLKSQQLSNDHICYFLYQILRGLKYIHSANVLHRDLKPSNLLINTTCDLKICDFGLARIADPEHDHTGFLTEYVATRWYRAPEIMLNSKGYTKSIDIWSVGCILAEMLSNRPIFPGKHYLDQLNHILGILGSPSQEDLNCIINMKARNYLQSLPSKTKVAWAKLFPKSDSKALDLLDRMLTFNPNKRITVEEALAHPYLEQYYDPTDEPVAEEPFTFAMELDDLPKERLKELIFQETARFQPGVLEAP
In short: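 Apparent IC50 came from initial reaction slopes (RFU vs time) plotted against log inhibitor with a variable-slope fit. Reactions were started with ERK1 (4 nM final) added to 50 μM ATP, roughly at its appKM, and 10 μM Sox-conjugated ST17 peptide in 20 mM Tris pH 7.5, 5 mM MgCl2. Fluorescence was monitored every 71 seconds.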

[1] = tested on: ERK1/2 phosphorylation of p90RSK in A375 cells; test: Detection of total and phosphor-RSK by MSD ELISA (A375); assay type: cell-based; settings: Homo sapiens, A-375, read-out: ERK1/ERK2 PRSK A375 EC50
In short: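 A375 cells serum-starved overnight in DMEM/0.1% FBS, then treated 2 h at 37° C with compound (1000× DMSO dilutions into medium). Lysates captured on RSK antibody-coated MSD plates; phospho-RSK (Ser380) and total RSK detected with SulfoTag secondary antibodies by electrochemiluminescence.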

T1 sequence (P27361 whole entry): as above

SMILES | ERK1 Mass Mod (%) (Erk1) | IC50 (MEK1 activated ERK1; MEK1 activated ERK1, ATP at KM, read-out: ERK1 Omnia WT ATP KM IC50) [nM] | EC50 [1] [nM] | IC50 (MEK1 activated ERK1; ATP at KM, WT) [nM]
C=CC(=O)Nc1cc(C)ccc1Nc1nc(Nc2cc(C(C)=O)ccc2C)ncc1C(F)(F)F [Compound I-84, N-(2-((2-((5-Acetyl-2-methylphenyl)amino)-5-(trifluoromethyl)pyrimidin-4-yl)amino)-5-methylphenyl)acrylamide] | E (key: E: a mass modification of ≧70%; F: a mass modification of 31-69%; G: a mass modification ≦30%) | 101 to 500 | – | –
C=CC(=O)Nc1cc(C)ccc1Nc1nc(Nc2nc(OC)ncc2Cl)ncc1C(F)(F)F [Compound I-344, N-(2-((2-((5-chloro-2-methoxypyrimidin-4-yl)amino)-5-(trifluoromethyl)pyrimidin-4-yl)amino)-5-methylphenyl)acrylamide] | E (a mass modification of ≧70%) | – | 101 to 500 | –
C=CC(=O)Nc1cc(CN2CCN(C(=O)c3ccccn3)CC2)ccc1Nc1nc(Nc2cc(OC)ncc2C)ncc1C(F)(F)F [Compound I-388, N-(2-((2-((2-methoxy-5-methylpyridin-4-yl)amino)-5-(trifluoromethyl)pyrimidin-4-yl)amino)-5-((4-picolinoylpiperazin-1-yl)methyl)phenyl)acrylamide] | – | – | < 100 | 101 to 500
C=CC(=O)Nc1cc(CN2CCN(C(=O)c3ccccn3)CC2)ccc1Nc1nc(Nc2nc(OC)ncc2C)ncc1C(F)(F)F [Compound I-391, N-(2-((2-((2-methoxy-5-methylpyrimidin-4-yl)amino)-5-(trifluoromethyl)pyrimidin-4-yl)amino)-5-((4-picolinoylpiperazin-1-yl)methyl)phenyl)acrylamide] | – | – | > 1000 | 101 to 500
C=CC(=O)Nc1cc(OC(F)(F)F)ccc1Nc1nc(Nc2cc(OC)ncc2C)ncc1C(F)(F)F [Compound I-407, N-(2-((2-((2-methoxy-5-methylpyridin-4-yl)amino)-5-(trifluoromethyl)pyrimidin-4-yl)amino)-5-(trifluoromethoxy)phenyl)acrylamide] | – | – | 101 to 500 | 101 to 500
C=CC(=O)Nc1cc(C)ccc1Nc1nc(Nc2cc(OC)ncc2CC)ncc1C(F)(F)F [Compound I-408, N-(2-((2-((5-ethyl-2-methoxypyridin-4-yl)amino)-5-(trifluoromethyl)pyrimidin-4-yl)amino)-5-methylphenyl)acrylamide] | – | – | 101 to 500 | 101 to 500
C=CC(=O)Nc1cc(O[C@H](C)C(=O)N2CCN(C(C)=O)CC2)ccc1Nc1nc(Nc2cc(OC)ncc2C)ncc1C(F)(F)F [Compound I-409, (R)—N-(5-((1-(4-acetylpiperazin-1-yl)-1-oxopropan-2-yl)oxy)-2-((2-((2-methoxy-5-methylpyridin-4-yl)amino)-5-(trifluoromethyl)pyrimidin-4-yl)amino)phenyl)acrylamide] | – | – | > 1000 | < 100
C=CC(=O)Nc1cc(O[C@H](C)C(=O)N2CCN(S(C)(=O)=O)CC2)ccc1Nc1nc(Nc2cc(OC)ncc2C)ncc1C(F)(F)F [Compound I-410, (R)—N-(2-((2-((2-methoxy-5-methylpyridin-4-yl)amino)-5-(trifluoromethyl)pyrimidin-4-yl)amino)-5-((1-(4-(methylsulfonyl)piperazin-1-yl)-1-oxopropan-2-yl)oxy)phenyl)acrylamide] | – | – | 101 to 500 | < 100
C=CC(=O)Nc1c(Nc2nc(Nc3cc(OC)ncc3C)ncc2OC)cccc1OCc1nccs1 [Compound I-411, N-(2-((5-methoxy-2-((2-methoxy-5-methylpyridin-4-yl)amino)pyrimidin-4-yl)amino)-6-(thiazol-2-ylmethoxy)phenyl)acrylamide] | – | – | > 1000 | > 1000
C=CC(=O)Nc1cc(O[C@@H](C)C(N)=O)ccc1Nc1nc(Nc2cc(OC)ncc2C)ncc1C(F)(F)F [Compound I-412, (S)—N-(5-((1-amino-1-oxopropan-2-yl)oxy)-2-((2-((2-methoxy-5-methylpyridin-4-yl)amino)-5-(trifluoromethyl)pyrimidin-4-yl)amino)phenyl)acrylamide] | – | – | < 100 | < 100
C=CC(=O)Nc1cc(O[C@H](C)C(N)=O)ccc1Nc1nc(Nc2cc(OC)ncc2C)ncc1C(F)(F)F [Compound I-413, (R)—N-(5-((1-amino-1-oxopropan-2-yl)oxy)-2-((2-((2-methoxy-5-methylpyridin-4-yl)amino)-5-(trifluoromethyl)pyrimidin-4-yl)amino)phenyl)acrylamide] | – | – | < 100 | < 100
C=CC(=O)Nc1cc(OCC(=O)N2CCN(C(C)=O)CC2)ccc1Nc1nc(Nc2cc(OC)ncc2OC)ncc1C(F)(F)F [Compound I-415, N-(5-(2-(4-acetylpiperazin-1-yl)-2-oxoethoxy)-2-((2-((2,5-dimethoxypyridin-4-yl)amino)-5-(trifluoromethyl)pyrimidin-4-yl)amino)phenyl)acrylamide] | – | – | 501 to 999 | < 100
C=CC(=O)Nc1cc(OCCN2CCN(C(C)=O)CC2)ccc1Nc1nc(Nc2cc(OC)ncc2C)ncc1C(F)(F)F [Compound I-416, N-(5-(2-(4-acetylpiperazin-1-yl)ethoxy)-2-((2-((2-methoxy-5-methylpyridin-4-yl)amino)-5-(trifluoromethyl)pyrimidin-4-yl)amino)phenyl)acrylamide] | – | – | 101 to 500 | < 100
C=CC(=O)Nc1cc(C)ccc1Nc1nc(NCC2COC2)ncc1C(F)(F)F [Compound I-417, N-(5-methyl-2-((2-((oxetan-3-ylmethyl)amino)-5-(trifluoromethyl)pyrimidin-4-yl)amino)phenyl)acrylamide] | – | – | > 1000 | > 1000
C=CC(=O)Nc1cc(C)ccc1Nc1nc(Nc2cc(C(=O)OC)nn2C)ncc1C(F)(F)F [Compound I-418, Methyl 5-((4-((2-acrylamido-4-methylphenyl)amino)-5-(trifluoromethyl)pyrimidin-2-yl)amino)-1-methyl-1H-pyrazole-3-carboxylate] | – | – | 501 to 999 | 101 to 500
C=CC(=O)Nc1cc(C)ccc1Nc1nc(Nc2cc(C(F)(F)F)nn2C)ncc1C(F)(F)F [Compound I-419, N-(5-methyl-2-((2-((1-methyl-3-(trifluoromethyl)-1H-pyrazol-5-yl)amino)-5-(trifluoromethyl)pyrimidin-4-yl)amino)phenyl)acrylamide] | – | – | > 1000 | > 1000
C=CC(=O)Nc1cc(C)ccc1Nc1nc(NC2COC2)ncc1C(F)(F)F [Compound I-420, N-(5-methyl-2-((2-(oxetan-3-ylamino)-5-(trifluoromethyl)pyrimidin-4-yl)amino)phenyl)acrylamide] | – | – | > 1000 | > 1000
C=CC(=O)Nc1cc(CN2CCN(C(C)=O)C[C@@H]2C)ccc1Nc1nc(Nc2cc(OC)ncc2C)ncc1C(F)(F)F [Compound I-421, (S)—N-(5-((4-acetyl-2-methylpiperazin-1-yl)methyl)-2-((2-((2-methoxy-5-methylpyridin-4-yl)amino)-5-(trifluoromethyl)pyrimidin-4-yl)amino)phenyl)acrylamide] | – | – | 101 to 500 | < 100
C=CC(=O)Nc1cc(CN2CCN(C(C)=O)C[C@H]2C)ccc1Nc1nc(Nc2cc(OC)ncc2C)ncc1C(F)(F)F [Compound I-422, (R)—N-(5-((4-acetyl-2-methylpiperazin-1-yl)methyl)-2-((2-((2-methoxy-5-methylpyridin-4-yl)amino)-5-(trifluoromethyl)pyrimidin-4-yl)amino)phenyl)acrylamide] | – | – | 101 to 500 | < 100
C=CC(=O)Nc1cc(C)ccc1Nc1nc(Nc2cc(C(N)=O)nn2C)ncc1C(F)(F)F [Compound I-423, 5-((4-((2-acrylamido-4-methylphenyl)amino)-5-(trifluoromethyl)pyrimidin-2-yl)amino)-1-methyl-1H-pyrazole-3-carboxamide] | – | – | > 1000 | > 1000
C=CC(=O)Nc1cc(C)ccc1Nc1nc(Nc2cc(C(=O)NC)nn2C)ncc1C(F)(F)F [Compound I-424, 5-((4-((2-acrylamido-4-methylphenyl)amino)-5-(trifluoromethyl)pyrimidin-2-yl)amino)-N,1-dimethyl-1H-pyrazole-3-carboxamide] | – | – | 501 to 999 | > 1000
C=CC(=O)Nc1cc(O[C@@H](C)C(=O)N2CCN(C(C)=O)CC2)ccc1Nc1nc(Nc2cc(OC)ncc2C)ncc1C(F)(F)F [Compound I-425, (S)—N-(5-((1-(4-acetylpiperazin-1-yl)-1-oxopropan-2-yl)oxy)-2-((2-((2-methoxy-5-methylpyridin-4-yl)amino)-5-(trifluoromethyl)pyrimidin-4-yl)amino)phenyl)acrylamide] | – | – | 501 to 999 | 101 to 500
C=CC(=O)Nc1cc(O[C@@H](C)C(=O)N2CCN(S(C)(=O)=O)CC2)ccc1Nc1nc(Nc2cc(OC)ncc2C)ncc1C(F)(F)F [Compound I-426, (S)—N-(2-((2-((2-methoxy-5-methylpyridin-4-yl)amino)-5-(trifluoromethyl)pyrimidin-4-yl)amino)-5-((1-(4-(methylsulfonyl)piperazin-1-yl)-1-oxopropan-2-yl)oxy)phenyl)acrylamide] | – | – | 101 to 500 | 501 to 999
C=CC(=O)Nc1cc(CCc2cnn(C)c2)ccc1Nc1nc(Nc2cc(OC)ncc2C)ncc1C(F)(F)F [Compound I-427, N-(2-((2-((2-methoxy-5-methylpyridin-4-yl)amino)-5-(trifluoromethyl)pyrimidin-4-yl)amino)-5-(2-(1-methyl-1H-pyrazol-4-yl)ethyl)phenyl)acrylamide] | – | – | 101 to 500 | 101 to 500
